Activity calls are given as the source filed them. How the calls were made is not given here.
tested on: human cells, XBP1 mRNA qRT-PCR; experiment: compound effect on XBP1 transcript levels – cell-based, quantitative RT-PCR, medium throughput (AID 652064)

Structure (SMILES) | IC50
CCN=C1NN=C(c2cc(C)n(Cc3ccco3)c2C)CS1 | 10.2 µM (inactive)
CC(C)(C)c1ccc(-c2noc(CCC(N)=O)n2)cc1 | > 20 µM (inactive)
C=CCn1c(C)cc(C2=NN=C(NCC)SC2)c1C | 6.85 µM (inactive)
Cc1ccc(NC(=O)O/N=C/c2c(C)nn(C(C)(C)C)c2C)cc1Cl | 10.1 µM (inactive)
CC(C)(C)c1ccc(C(=O)Nc2ccc(CC(=O)O)cc2)o1 | > 20 µM (inactive)
CCOc1ccc(-c2nc(CSCC(=O)NCc3ccco3)c(C)o2)cc1 | 7.45 µM (inactive)
Cc1cc(C2=NNC(=NC3CC3)SC2)c(C)n1-c1ccccc1 | 4.78 µM (inactive)
Cc1cc(C2=NNC(=NC3CC3)SC2)c(C)n1-c1ccccc1F | 6.31 µM (inactive)
Cc1ccc(NC(=O)c2cc3ccccc3oc2=O)cc1S(=O)(=O)N(C)C | > 20 µM (inactive)
Cc1cc(C(=O)COC(=O)c2ccccc2O)c(C)n1Cc1cccs1 | 8.67 µM (inactive)
Cc1nn(C(C)(C)C)c(C)c1/C=N/OC(=O)Nc1ccc(Cl)cc1 | 20.1 µM (inactive)

Reference: PubChem BioAssay AID652064 (Molecular Libraries Program, Specialized Chemistry Center, …, 2013)
